Results published in patent US20240116985A1, “STAPLED PEPTIDES AND METHODS THEREOF” (priority 2020, published 2024).

Legend:
[1] = molecular target: T1, full-length B-Catenin (Uniprot ID P35222) (Homo sapiens, UniProt P35222); experiment: Alphascreen binding assay (beta-catenin / biotin-TCF4 10-53)
T1 construct: 65 nM full-length B-Catenin (Uniprot ID P35222)
T1 sequence (P35222 1-781): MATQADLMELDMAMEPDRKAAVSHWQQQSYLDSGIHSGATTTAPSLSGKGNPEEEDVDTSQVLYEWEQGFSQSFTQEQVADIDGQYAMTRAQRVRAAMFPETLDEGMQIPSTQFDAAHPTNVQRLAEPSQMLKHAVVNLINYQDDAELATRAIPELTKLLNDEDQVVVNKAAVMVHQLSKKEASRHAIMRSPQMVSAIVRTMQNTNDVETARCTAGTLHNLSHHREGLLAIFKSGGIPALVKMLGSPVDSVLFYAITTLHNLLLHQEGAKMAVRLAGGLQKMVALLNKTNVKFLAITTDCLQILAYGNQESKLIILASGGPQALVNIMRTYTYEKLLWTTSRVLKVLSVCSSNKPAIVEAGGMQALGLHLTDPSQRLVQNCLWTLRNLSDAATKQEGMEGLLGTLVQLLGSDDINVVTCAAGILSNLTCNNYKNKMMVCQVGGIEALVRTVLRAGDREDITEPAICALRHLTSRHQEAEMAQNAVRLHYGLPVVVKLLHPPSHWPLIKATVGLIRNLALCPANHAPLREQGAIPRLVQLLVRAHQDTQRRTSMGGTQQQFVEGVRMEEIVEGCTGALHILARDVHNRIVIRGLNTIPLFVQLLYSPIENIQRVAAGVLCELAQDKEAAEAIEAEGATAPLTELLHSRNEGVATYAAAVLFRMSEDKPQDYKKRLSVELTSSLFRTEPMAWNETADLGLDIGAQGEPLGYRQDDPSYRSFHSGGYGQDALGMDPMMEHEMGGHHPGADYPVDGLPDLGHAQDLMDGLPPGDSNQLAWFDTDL
Summary of the method: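 AlphaScreen (Ni-chelate beads) competition in 50 mM Tris pH 8.0, 250 mM NaCl with detergents and 0.1% BSA. Peptide titrated 10 uM–5 nM against 65 nM human β-catenin bound to 10 nM biotinylated TCF4 10-53, 15 min then 60 min with beads, both at 20 °C; 1:1 Hill-slope fit.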

[2] = CHI Log D procedure; format: physicochemical; conditions: for chromatographic logD: pH 7.4, CHI Log D; for CHI Log D: pH 7.4

Compound	EC50 [1] [µM]	chromatographic logD [2]	CHI Log D [2]
CC(=O)N1CCC[C@]12CC=CCCCC1(CCCC=CCCCCCC[C@@](C)(C(=O)N[C@@H](Cc3ccccc3)C(=O)N[C@@H](Cc3c[nH]c4ccccc34)C(=O)N[C@@H](CCC(N)=O)C(N)=O)NC(=O)[C@H](C(C)C)NC(=O)[C@H](Cc3ccccc3)NC(=O)[C@H](C)NC(=O)[C@H](C)NC(=O)[C@H](Cc3ccc(F)c(F)c3)NC(=O)[C@H](CC(=O)O)NC1=O)NC(=O)[C@H](C)NC(=O)[C@H](CC(=O)O)NC2=O (stereo partly drawn) [I-259, Ac-PL3-Asp-Ala-B5-Asp-34FF-Ala-Ala-Phe-Val-S8-Phe-Trp-Gln-NH2]	4.18	2.9	
CC(=O)N1CCC[C@]12CC=CCCCC1(CCCC=CCCCCCC[C@@](C)(C(=O)N[C@@H](Cc3ccccc3)C(=O)N[C@@H](Cc3c[nH]c4ccccc34)C(=O)N[C@@H](CCC(N)=O)C(N)=O)NC(=O)[C@H](C(C)C)NC(=O)[C@H](Cc3ccc(N)cc3)NC(=O)[C@H](C)NC(=O)[C@H](C)NC(=O)[C@H](CC(=O)O)NC(=O)[C@H](CC(=O)O)NC1=O)NC(=O)[C@H](C)NC(=O)[C@H](CC(=O)O)NC2=O (stereo partly drawn) [I-322, Ac-PL3-Asp-Ala-B5-Asp-Asp-Ala-Ala-4AmPhe-Val-S8-Phe-Trp-Gln-NH2]	0.355		1.933
CC(=O)N1CCC[C@]12CC=CCCCC1(CCCC=CCCCCCC[C@@](C)(C(=O)N[C@@H](Cc3ccccc3)C(=O)N[C@@H](Cc3c[nH]c4ccccc34)C(=O)N[C@@H](CCC(N)=O)C(N)=O)NC(=O)[C@H](C(C)C)NC(=O)[C@H](Cc3ccc(C(F)(F)F)cc3)NC(=O)[C@H](C)NC(=O)[C@H](C)NC(=O)[C@H](CC(=O)O)NC(=O)[C@H](CC(=O)O)NC1=O)NC(=O)[C@H](C)NC(=O)[C@H](CC(=O)O)NC2=O (stereo partly drawn) [I-243, Ac-PL3-Asp-Ala-B5-Asp-Asp-Ala-Ala-4F3MeF-Val-S8-Phe-Trp-Gln-NH2]	4.91		2.098
CC(=O)N[C@@H](Cc1ccccc1)C(=O)N[C@@H](CC(=O)O)C(=O)N[C@@H](C)C(=O)N[C@]1(C)CCCCCCC=CCOC(=O)N2CC[C@@](C(=O)N[C@@H](Cc3ccccc3)C(=O)N[C@@H](Cc3c[nH]c4ccccc34)C(=O)N[C@@H](CCC(N)=O)C(N)=O)(C2)NC(=O)[C@H]([C@@H](C)O)NC(=O)[C@H](Cc2ccccc2)NC(=O)[C@H](C)NC(=O)[C@H](C)NC(=O)[C@H](CC(=O)O)NC(=O)[C@H](CC(=O)O)NC1=O [I-224, Ac-Phe-Asp-Ala-R8-Asp-Asp-Ala-Ala-Phe-Thr-PyrS-Phe-Trp-Gln-NH2]	4.12		1.401
CC(=O)N[C@@H](Cc1ccccc1)C(=O)N[C@@H](CC(=O)O)C(=O)N[C@@H](C)C(=O)N[C@]1(C)CCCCCCC=CCOC(=O)N2CC[C@@](C(=O)N[C@@H](Cc3c(F)c(F)c(F)c(F)c3F)C(=O)N[C@@H](Cc3c[nH]c4ccccc34)C(=O)N[C@@H](CCC(N)=O)C(N)=O)(C2)NC(=O)[C@H](C(C)C)NC(=O)[C@H](Cc2ccccc2)NC(=O)[C@H](C)NC(=O)[C@H](C)NC(=O)[C@H](CC(=O)O)NC(=O)[C@H](CC(=O)O)NC1=O [I-225, Ac-Phe-Asp-Ala-R8-Asp-Asp-Ala-Ala-Phe-Val-PyrS-Pff-Trp-Gln-NH2]	7.63		1.497
CC(=O)N1CCC[C@]12CC=CCCCC1(CCCC=CCCCCCC[C@@](C)(C(=O)N[C@@H](Cc3ccccc3)C(=O)N[C@@H](Cc3csc4ccccc34)C(=O)N[C@@H](CCC(N)=O)C(N)=O)NC(=O)[C@H](C(C)C)NC(=O)[C@H](Cc3ccccc3)NC(=O)[C@H](C)NC(=O)[C@H](C)NC(=O)[C@H](Cc3ccc4ccccc4c3)NC(=O)[C@H](CC(=O)O)NC1=O)NC(=O)[C@H](C)NC(=O)[C@H](CC(=O)O)NC2=O (stereo partly drawn) [I-297, Ac-PL3-Asp-Ala-B5-Asp-2NapA-Ala-Ala-Phe-Val-S8-Phe-BztA-Gln-NH2]	5.81	3.29	
CC(=O)N1CCC[C@]12CC=CCCCC1(CCCC=CCCCCCC[C@@](C)(C(=O)N[C@@H](Cc3cccc(Cl)c3)C(=O)N[C@@H](Cc3c[nH]c4ccccc34)C(=O)N[C@@H](CCC(N)=O)C(N)=O)NC(=O)[C@H](C(C)C)NC(=O)[C@H](Cc3ccccc3)NC(=O)[C@H](C)NC(=O)[C@H](C)NC(=O)[C@H](CC(=O)O)NC(=O)[C@H](CC(=O)O)NC1=O)NC(=O)[C@H](C)NC(=O)[C@H](CC(=O)O)NC2=O (stereo partly drawn) [I-310, Ac-PL3-Asp-Ala-B5-Asp-Asp-Ala-Ala-Phe-Val-S8-3C1F-Trp-Gln-NH2]	3.24		2.188
CC(=O)N1CCC[C@]12CC=CCCCC1(CCCC=CCCCCCC[C@@](C)(C(=O)N[C@@H](Cc3ccccc3)C(=O)N[C@@H](Cc3c[nH]c4ccccc34)C(=O)N[C@@H](CCC(N)=O)C(N)=O)NC(=O)[C@H](C(C)C)NC(=O)[C@H](Cc3ccccc3)NC(=O)[C@H](C)NC(=O)[C@H](C)NC(=O)[C@H](Cc3c[nH]c4ccccc34)NC(=O)[C@H](CC(=O)O)NC1=O)NC(=O)[C@H](C)NC(=O)[C@H](CC(=O)O)NC2=O (stereo partly drawn) [I-233, Ac-PL3-Asp-Ala-B5-Asp-Trp-Ala-Ala-Phe-Val-S8-Phe-Trp-Gln-NH2]	5.9	2.82	
CC(=O)N1CCC[C@]12CC=CCCCC1(CCCC=CCCCCCC[C@@](C)(C(=O)N[C@@H](Cc3ccccc3)C(=O)N[C@@H](Cc3c[nH]c4ccccc34)C(=O)N[C@@H](CCC(N)=O)C(N)=O)NC(=O)[C@H](C(C)C)NC(=O)[C@H](Cc3ccccc3)NC(=O)[C@H](C)NC(=O)[C@H](C)NC(=O)[C@H](CCC(=O)O)NC(=O)[C@H](CC(=O)O)NC1=O)NC(=O)[C@H](C)NC(=O)[C@H](CC(N)=O)NC2=O (stereo partly drawn) [I-200, Ac-PL3-Asn-Ala-B5-Asp-Glu-Ala-Ala-Phe-Val-S8-Phe-Trp-Gln-NH2]	0.173		2.278
CC(=O)N1CCC[C@]12CC=CCCCC1(CCCC=CCCCCCC[C@@](C)(C(=O)N[C@@H](Cc3cccc(Cl)c3)C(=O)N[C@@H](Cc3c[nH]c4ccccc34)C(=O)N[C@@H](CCC(N)=O)C(N)=O)NC(=O)[C@H](C(C)C)NC(=O)[C@H](Cc3ccccc3)NC(=O)[C@H](C)NC(=O)[C@H](C)NC(=O)[C@H](CC(=O)O)NC(=O)[C@H](CC(=O)O)NC1=O)NC(=O)[C@H](C)NC(=O)[C@H](CC(=O)O)NC2=O (stereo partly drawn) [I-311, Ac-PL3-Asp-Ala-B5-Asp-Asp-Ala-Ala-Phe-Val-S8-3C1F-Trp-Gln-NH2]	1.24		2.226
CC(=O)N[C@@H](Cc1ccccc1)C(=O)N[C@@H](CC(=O)O)C(=O)N[C@@H](C)C(=O)N[C@]1(C)CCCCCCC=CCOC(=O)N2CC[C@@](C(=O)N[C@@H](CC3CCCC3)C(=O)N[C@@H](Cc3c[nH]c4ccccc34)C(=O)N[C@@H](CCC(N)=O)C(N)=O)(C2)NC(=O)[C@H](C(C)C)NC(=O)[C@H](Cc2ccccc2)NC(=O)[C@H](C)NC(=O)[C@H](C)NC(=O)[C@H](CC(=O)O)NC(=O)[C@H](CC(=O)O)NC1=O (single isomer, unassigned) [I-94, Ac-Phe-Asp-Ala-R8-Asp-Asp-Ala-Ala-Phe-Val-PyrS-CypA-Trp-Gln-NH2]	7.01		1.409
COc1ccc2[nH]cc(C[C@H](NC(=O)[C@H](Cc3ccccc3)NC(=O)[C@]3(C)CCCCCCC=CCCCC4(CCCC=CC[C@]5(CCCN5C(C)=O)C(=O)N[C@@H](CC(=O)O)C(=O)N[C@@H](C)C(=O)N4)C(=O)N[C@@H](CC(=O)O)C(=O)N[C@@H](CCC(=O)O)C(=O)N[C@@H](C)C(=O)N[C@@H](C)C(=O)N[C@@H](Cc4ccccc4)C(=O)N[C@@H](C(C)C)C(=O)N3)C(=O)N[C@@H](CCC(N)=O)C(N)=O)c2c1 (stereo partly drawn) [I-165, Ac-PL3-Asp-Ala-B5-Asp-Glu-Ala-Ala-Phe-Val-S8-Phe-5MeOW-Gln-NH2]	1.23	2	
CC(=O)N1CCC[C@]12CC=CCCCC1(CCCC=CCCCCCC[C@@](C)(C(=O)N[C@@H](Cc3ccc(C(F)(F)F)cc3)C(=O)N[C@@H](Cc3c[nH]c4ccccc34)C(=O)N[C@@H](CCC(N)=O)C(N)=O)NC(=O)[C@H](C(C)C)NC(=O)[C@H](Cc3ccccc3)NC(=O)[C@H](C)NC(=O)[C@H](C)NC(=O)[C@H](CC(=O)O)NC(=O)[C@H](CC(=O)O)NC1=O)NC(=O)[C@H](C)NC(=O)[C@H](CC(=O)O)NC2=O (stereo partly drawn) [I-255, Ac-PL3-Asp-Ala-B5-Asp-Asp-Ala-Ala-Phe-Val-S8-4F3MeF-Trp-Gln-NH2]	1.96		2.232
CC(=O)N[C@@H](Cc1ccccc1)C(=O)N[C@@H](CC(=O)O)C(=O)N[C@@H](C)C(=O)N[C@]1(C)CCCCCCC=CCOC(=O)N2CC[C@@](C(=O)N[C@@H](Cc3ccccc3)C(=O)N[C@@H](Cc3c[nH]c4ccccc34)C(=O)N[C@@H](CCC(N)=O)C(N)=O)(C2)NC(=O)[C@H](C(C)C)NC(=O)[C@H](Cc2ccc3ccccc3c2)NC(=O)[C@H](C)NC(=O)[C@H](C)NC(=O)[C@H](CC(=O)O)NC(=O)[C@H](CC(=O)O)NC1=O [I-113, Ac-Phe-Asp-Ala-R8-Asp-Asp-Ala-Ala-2NapA-Val-PyrS-Phe-Trp-Gln-NH2]	6.2		1.435
